The source of these data is patent publication US20230286960A1, “ALLOSTERIC CHROMENONE INHIBITORS OF PHOSPHOINOSITIDE 3-KINASE (PI3K) FOR THE TREATMENT OF DISEASE” (Petra Pharma Corporation, priority 2020, published 2023).

Assay [1] deals with human full length PIK3CA wild-type (p110α/p85α) (Homo sapiens (Human), UniProt P42336). Description: PI3K-alpha kinase (PIK3CA) activity, wild-type, Transcreener ADP2 FI assay. Conditions: PI3K-α (PIK3CA) biochemical. On the procedure: (§1) PI3K-Alpha Kinase (PIK3CA) Activity, Wild-Type and H1047R Mutant and Determining IC50 Values for Inhibitors
Sequence of human full length PIK3CA wild-type (p110α/p85α) (P42336 whole entry): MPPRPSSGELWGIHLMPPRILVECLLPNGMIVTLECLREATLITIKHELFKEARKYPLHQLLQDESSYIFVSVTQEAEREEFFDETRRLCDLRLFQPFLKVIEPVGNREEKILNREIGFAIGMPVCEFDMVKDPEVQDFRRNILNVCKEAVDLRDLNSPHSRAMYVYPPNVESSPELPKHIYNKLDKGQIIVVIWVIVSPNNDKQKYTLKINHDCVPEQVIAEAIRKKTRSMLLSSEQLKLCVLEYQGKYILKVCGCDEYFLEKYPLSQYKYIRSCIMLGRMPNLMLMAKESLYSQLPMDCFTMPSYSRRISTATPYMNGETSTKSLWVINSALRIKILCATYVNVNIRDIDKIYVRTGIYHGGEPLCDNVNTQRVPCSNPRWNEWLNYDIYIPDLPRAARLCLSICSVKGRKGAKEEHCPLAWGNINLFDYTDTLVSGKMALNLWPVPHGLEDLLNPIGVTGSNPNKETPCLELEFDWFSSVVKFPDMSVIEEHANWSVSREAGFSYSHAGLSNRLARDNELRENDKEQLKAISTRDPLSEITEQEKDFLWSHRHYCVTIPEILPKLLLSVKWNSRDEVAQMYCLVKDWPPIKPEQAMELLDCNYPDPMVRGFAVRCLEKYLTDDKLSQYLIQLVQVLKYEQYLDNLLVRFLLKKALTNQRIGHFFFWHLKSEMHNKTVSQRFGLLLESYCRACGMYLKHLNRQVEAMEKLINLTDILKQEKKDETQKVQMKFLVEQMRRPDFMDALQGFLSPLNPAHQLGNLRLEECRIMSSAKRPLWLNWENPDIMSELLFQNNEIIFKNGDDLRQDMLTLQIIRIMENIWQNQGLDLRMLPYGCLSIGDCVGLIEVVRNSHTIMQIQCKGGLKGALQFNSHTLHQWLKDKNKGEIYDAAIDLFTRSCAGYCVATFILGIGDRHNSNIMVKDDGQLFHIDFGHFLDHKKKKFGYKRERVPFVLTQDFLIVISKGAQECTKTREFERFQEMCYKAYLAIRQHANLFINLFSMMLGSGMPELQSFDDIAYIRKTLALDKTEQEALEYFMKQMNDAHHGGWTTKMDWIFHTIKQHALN
Sequence of human full length PIK3CA wild-type (p110α/p85α) (P27986 whole entry partner): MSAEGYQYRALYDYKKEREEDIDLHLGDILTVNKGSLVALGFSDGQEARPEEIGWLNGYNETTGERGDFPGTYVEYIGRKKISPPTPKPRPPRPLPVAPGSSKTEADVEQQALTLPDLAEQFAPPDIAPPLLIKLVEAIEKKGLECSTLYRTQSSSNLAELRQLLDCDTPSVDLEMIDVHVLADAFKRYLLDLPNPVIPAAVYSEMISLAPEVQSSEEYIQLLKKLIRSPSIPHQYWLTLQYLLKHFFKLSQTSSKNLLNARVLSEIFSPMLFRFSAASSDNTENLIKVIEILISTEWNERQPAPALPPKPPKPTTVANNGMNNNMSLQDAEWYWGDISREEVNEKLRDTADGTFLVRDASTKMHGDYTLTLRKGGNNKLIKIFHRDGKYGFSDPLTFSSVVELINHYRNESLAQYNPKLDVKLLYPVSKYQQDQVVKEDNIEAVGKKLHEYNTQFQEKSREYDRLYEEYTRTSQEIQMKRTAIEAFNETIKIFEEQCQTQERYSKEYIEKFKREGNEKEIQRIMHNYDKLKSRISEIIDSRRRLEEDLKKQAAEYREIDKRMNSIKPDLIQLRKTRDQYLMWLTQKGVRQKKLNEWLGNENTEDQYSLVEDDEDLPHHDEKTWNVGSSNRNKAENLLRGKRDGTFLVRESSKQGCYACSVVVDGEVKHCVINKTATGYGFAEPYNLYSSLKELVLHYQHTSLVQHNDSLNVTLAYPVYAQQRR
(§2) Recombinant, catalytically active human full length PIK3KA Wild-type and H1047R mutant were purchased as 1:1 complex of N-terminal 6× his tagged p110 ? (catalytic) and untagged p85 ? (regulatory subunit) from EMD Millipore Sigma (cat. no. 14-602M and 14-792M, respectively). The enzyme stocks were diluted to 5× stocks in buffer (20 mM HEPES pH 7.4, 100 mM NaCl, 0.5 mM EGTA, 0.01% triton-x-100) just before use. PIP2diC8 (Avanti Polar Lipids Inc., cat. no. 850185) or phosphoinositol-4,5-bisphosphate with phosphoserine (PIP2:PS) membrane (Thermo Fisher Scientific, cat. no. PV5100) was used as lipid substrates. PIP2diC8 lyophilized powder and PIP2:PS (1:19) membrane stock (1 mM in PIP2) were separately dissolved in milliQ water to a concentration of 250 uM and stored in −20° C. 10 mM stocks of compounds were serially diluted (3×) in neat DMSO and stored in a dessicator at room temperature. 5× compound stocks in 25% DMSO were prepared fresh from neat DMSO stocks.
(§3) Wild-type (WT) and H1047R mutant protein, along with buffer components (except ATP), were incubated with or without compound at 27° C. for 1 h. After incubation, the reaction was initiated by the addition of 5 uL of 125 uM ATP. A typical assay mixture (25 uL) comprised 40 mM HEPES buffer, pH 7.4, 25 mM MgCl2, 0.01% v/v triton-X-100, 5% v/v DMSO, 20 mM NaCl, 1-5 nM wt or H1047R, 25 uM ATP, and 50 uM PIP2diC8 or PIP2 in membrane. The reaction was allowed to proceed until about […] (2.5 uM ADP) after which time, 10 uL of reaction mixture was quenched with 25 uL of transcreener reagent (Transcreener ADP2 FI assay kit, BellBrook labs, Cat. No. 3013). The contents were incubated at rt for 1 h and fluorescence was measured using a plate reader (Paradigm, Molecular Devices). The same assay was also run at pH 6.0 or 6.4 using MOPS buffer (Fisher BioReagents, CAS 1132-61-2). A calibration curve was generated under identical buffer conditions with varying ADP amounts. Using that, the observed fluorescence was converted to uM ADP. A plot between [ADP] and log[I] yielded the dose-response curves that enabled the calculation of IC50s.

Assay [2] concerns the target human full length PIK3CA H1047R mutant (p110α/p85α) (Homo sapiens (Human), UniProt P42336, H1047R). In words: PI3K-alpha kinase (PIK3CA) activity, H1047R mutant, Transcreener ADP2 FI assay. Conditions: PI3K-α (PIK3CA) biochemical. The procedure:
as §1, §2, §3

A value given as a limit tells only on which side of the number the result lay.

Sequence of human full length PIK3CA H1047R mutant (p110α/p85α) (P42336 whole entry H1047R): as the sequence (P42336 whole entry) above, with H1047R counted along it
Sequence of human full length PIK3CA H1047R mutant (p110α/p85α) (P27986 whole entry partner): as the sequence (P27986 whole entry partner) above

On to `Cc1cc(C(C)N(C)c2ccccc2C(=O)O)c2oc(N3CCC(C)(C)CC3)cc(=O)c2c1` (centres unmarked) [Example 5, 2-[1-[2-(4,4-Dimethyl-1-piperidyl)-6-methyl-4-oxo-chromen-8-yl]ethyl-methyl-amino]benzoic acid], for which the IC50 in assay [1] and in assay [2] was above 10000 nM in each case.

On to `Cc1cc(C(C)Nc2ccc(C#N)cc2C(=O)O)c2oc(N3CCC(C)(C)CC3)cc(=O)c2c1` (centres unmarked) [Example 6, 5-Cyano-2-[1-[2-(4,4-dimethyl-1-piperidyl)-6-methyl-4-oxo-chromen-8-yl]ethylamino]benzoic acid], for which the IC50 in assay [1] is above 10000 nM; in assay [2], below 500 nM.

As to `Cc1cc(C(C)Nc2cc(F)ccc2[N+](=O)[O-])c2oc(N3CCC(C)(C)CC3)cc(=O)c2c1` (centres unmarked) [Example 8, 2-(4,4-Dimethyl-1-piperidyl)-8-[1-(5-fluoro-2-nitro-anilino)ethyl]-6-methyl-chromen-4-one], the IC50 in assay [1] and in assay [2] was above 10000 nM in each case.

`Cc1cc(C(C)Nc2c(Cl)cccc2C(=O)O)c2oc(N3CCC(C)(C)CC3)cc(=O)c2c1` (centres unmarked) [Example 11, 3-Chloro-2-[1-[2-(4,4-dimethyl-1-piperidyl)-6-methyl-4-oxo-chromen-8-yl]ethylamino]benzoic acid]: the IC50 in assay [1] and in assay [2] was above 10000 nM each time.

On to `Cc1cc(C(C)Nc2cc3c(cc2C(=O)O)OCO3)c2oc(N3CCC(C)(C)CC3)cc(=O)c2c1` (centres unmarked) [Example 33, 6-[1-[2-(4,4-Dimethyl-1-piperidyl)-6-methyl-4-oxo-chromen-8-yl]ethylamino]-1,3-benzodioxole-5-carboxylic acid], for which the IC50 in assay [1] and in assay [2] was above 10000 nM throughout.

Consider `Cc1cc(C(C)Nc2ccccc2C(=O)O)c2oc(N3CC(Cl)C3)cc(=O)c2c1` (centres unmarked) [Example 63, 2-[1-[2-(3-Chloroazetidin-1-yl)-6-methyl-4-oxo-chromen-8-yl]ethylamino]benzoic acid], for which the IC50 in assay [1] was above 10000 nM; in assay [2] it was below 500 nM.

In the case of `Cc1cc(C(C)Nc2ccccc2C(=O)O)c2oc(NCC(C)C)cc(=O)c2c1` (centres unmarked) [Example 77, 2-[1-[2-(Isobutylamino)-6-methyl-4-oxo-chromen-8-yl]ethylamino]benzoic acid], the IC50 is above 10000 nM in assay [1] and below 500 nM in assay [2].

Regarding `Cc1cc(C(C)Nc2ccccc2C(=O)O)c2oc(NC34CC5CC(CC(CO)(C5)C3)C4)cc(=O)c2c1` (centres unmarked) [Example 169], the IC50 in assay [1] is above 10000 nM.

`COc1ccc(NC(C)c2cc(C)cc3c(=O)cc(N4Cc5ccccc5C4)oc23)c(C(=O)O)n1` (centres unmarked) [Example 237, 3-[1-(2-Isoindolin-2-yl-6-methyl-4-oxo-chromen-8-yl)ethylamino]-6-methoxy-pyridine-2-carboxylic acid] yielded an IC50 in assay [1] above 10000 nM.

In turn, `Cc1cc(C(C)Nc2cccc(F)c2C(=O)O)c2oc(N3Cc4ccc(F)cc4C3)cc(=O)c2c1` (centres unmarked) [Example 238, 2-Fluoro-6-[1-[2-(5-fluoroisoindolin-2-yl)-6-methyl-4-oxo-chromen-8-yl]ethylamino]benzoic acid] gave an IC50 in assay [1] above 10000 nM.

In the case of `Cc1cc([C@@H](C)Nc2ccc(Cl)nc2C(=O)O)c2oc(N3CCC(C)(C)CC3)cc(=O)c2c1` [Example 256, 6-Chloro-3-[[(1R)-1-[2-(4,4-dimethyl-1-piperidyl)-6-methyl-4-oxo-chromen-8-yl]lethyl]amino]pyridine-2-carboxylic acid], the IC50 in assay [1] and in assay [2] was below 500 nM throughout.

`Cc1cc([C@@H](C)Nc2ccccc2C(=O)O)c2oc(N3CC(C)(c4ccccc4)C3)c(C)c(=O)c2c1` [Example 274, 2-[[(1R)-1-[3,6-Dimethyl-2-(3-methyl-3-phenyl-azetidin-1-yl)-4-oxo-chromen-8-yl]ethyl]amino]benzoic acid]: the IC50 in assay [1] and in assay [2] was below 500 nM each time.

On to `Cc1cc([C@@H](C)Nc2ccccc2C(=O)O)c2oc(N3CC[C@H](c4ccccc4)C3)c(C)c(=O)c2c1` [Example 286, 2-[[(1R)-1-[3,6-dimethyl-4-oxo-2-[(3R)-3-phenylpyrrolidin-1-yl]chromen-8-yl]ethyl]amino]benzoic acid], for which the IC50 in assay [1] and in assay [2] was below 500 nM throughout.

Regarding `Cc1cc(C(C)Nc2ccc(Cl)nc2C(=O)O)c2oc(N3CCC4(CC3)CC4)cc(=O)c2c1` (centres unmarked) [Example 298, 3-[1-[2-(6-Azaspiro[2.5]octan-6-yl)-6-methyl-4-oxo-chromen-8-yl]ethylamino]-6-chloro-pyridine-2-carboxylic acid], the IC50 in assay [1] and in assay [2] was below 500 nM throughout.

For the molecule `Cc1cc([C@@H](C)Nc2ccc(Cl)nc2C(=O)O)c2oc(N3Cc4ccccc4C3)cc(=O)c2c1` [Example 300, 6-Chloro-3-[[(1R)-1-(2-isoindolin-2-yl-6-methyl-4-oxo-chromen-8-yl)ethyl]amino]pyridine-2-carboxylic acid], the IC50 in assay [1] and in assay [2] was below 500 nM in each case.

As for `Cc1cc([C@@H](C)Nc2ccc(Cl)nc2C(=O)O)c2oc(N3Cc4ccc5c(c4C3)OCO5)cc(=O)c2c1` [Example 301, 6-Chloro-3-[[(1R)-1-[2-(6,8-dihydro-[1,3]dioxolo[4,5-e]isoindol-7-yl)-6-methyl-4-oxo-chromen-8-yl]ethyl]amino]pyridine-2-carboxylic acid], the IC50 in assay [1] and in assay [2] was below 500 nM each time.

As for `Cc1cc(C(C)Nc2ccc(Cl)nc2C(=O)O)c2oc(N3CCCCC3)c(C)c(=O)c2c1` (centres unmarked) [Example 305, 6-Chloro-3-[1-[3,6-dimethyl-4-oxo-2-(1-piperidyl)chromen-8-yl]ethylamino]pyridine-2-carboxylic acid], the IC50 in assay [1] and in assay [2] was below 500 nM throughout.

Take `Cc1cc([C@@H](C)Nc2ccc(Cl)nc2C(=O)O)c2oc(N3CCC4(CC3)CC4)c(C)c(=O)c2c1` [Example 306, 3-[[(1R)-1-[2-(6-Azaspiro[2.5]octan-6-yl)-3,6-dimethyl-4-oxo-chromen-8-yl]ethyl]amino]-6-chloro-pyridine-2-carboxylic acid]: the 50% inhibitory concentration (IC50) in assay [1] and in assay [2] was below 500 nM throughout.

As for `Cc1cc([C@@H](C)Nc2ccc(Cl)nc2C(=O)O)c2oc(N3Cc4ccc(F)cc4C3)c(C)c(=O)c2c1` [Example 308, 6-Chloro-3-[[(1R)-1-[2-(5-fluoroisoindolin-2-yl)-3,6-dimethyl-4-oxo-chromen-8-yl]ethyl]amino]pyridine-2-carboxylic acid], the IC50 in assay [1] and in assay [2] was below 500 nM in each case.

Turning to `Cc1cc([C@@H](C)Nc2ccc(Cl)nc2C(=O)O)c2oc(N3CCCCC3)c(C)c(=O)c2c1` [Example 309, 6-Chloro-3-[[(1R)-1-[3,6-dimethyl-4-oxo-2-(1-piperidyl)chromen-8-yl]ethyl]amino]pyridine-2-carboxylic acid], the IC50 in assay [1] and in assay [2] was below 500 nM throughout.

Turning to `Cc1cc([C@@H](C)Nc2ccc(Cl)nc2C(=O)O)c2oc(N3CCC(F)(F)CC3)c(C)c(=O)c2c1` [Example 310, 6-Chloro-3-[[(1R)-1-[2-(4,4-difluoro-1-piperidyl)-3,6-dimethyl-4-oxo-chromen-8-yl]ethyl]amino]pyridine-2-carboxylic acid], the IC50 in assay [1] and in assay [2] was below 500 nM each time.

Consider `Cc1cc(C(C)Nc2ccc(B(O)O)cc2C(=O)O)c2oc(N3CCC(C)(C)CC3)cc(=O)c2c1` (centres unmarked) [Example 357, 5-Borono-2-[1-[2-(4,4-dimethyl-1-piperidyl)-6-methyl-4-oxo-chromen-8-yl]ethylamino]benzoic acid], for which the IC50 in assay [1] and in assay [2] was above 10000 nM throughout.

In assay [1], `CNC(=O)C1CCN(c2cc(=O)c3cc(C)cc(C(C)Nc4ccccc4C(=O)O)c3o2)CC1` (centres unmarked) [Example 371, 2-[1-[6-Methyl-2-[4-(methylcarbamoyl)-1-piperidyl]-4-oxo-chromen-8-yl]ethylamino]benzoic acid] showed an IC50 above 10000 nM.

On to `COC1CCN(c2cc(=O)c3cc(C)cc(C(C)Nc4ccccc4C(=O)O)c3o2)CC1` (centres unmarked) [Example 373, 2-[1-[2-(4-Methoxy-1-piperidyl)-6-methyl-4-oxo-chromen-8-yl]ethylamino]benzoic acid], for which the IC50 in assay [1] is above 10000 nM.

Take `Cc1cc(C(C)Nc2ccccc2C(=O)O)c2oc(N3CCC4(CC3)CN(C)C(=O)O4)cc(=O)c2c1` (centres unmarked) [Example 380, 2-[1-[6-Methyl-2-(3-methyl-2-oxo-1-oxa-3,8-diazaspiro[4.5]decan-8-yl)-4-oxo-chromen-8-yl]ethylamino]benzoic acid]: the IC50 in assay [1] is above 10000 nM.

As usually defined, the IC50 is the midpoint of a concentration-inhibition curve.
